{"source": "PubChem BioAssay AID1259334", "about": "(Broad Institute, 2017)", "note": "The source made the active and inactive calls. Rule as the data show it: active = AC50 below about 11 µM.", "data": [{"test_system": "B cell line, TNFa signaling counterscreen reporter", "experiment": "TNFa pathway inhibition counter-screen, B-lineage cells – dose response (AID 1259334);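 also: cells stimulated with TNFa after compound preincubation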", "conditions": "not given", "units": {"AC50": "µM"}, "values": [{"compound": "O=C(c1ccc(F)cc1)N1C[C@@H]2N[C@H](C1)C2c1ccc(/C=C/c2ccccc2)cc1", "note": "(some centres undefined)", "AC50": 7.15}]}, {"test_system": "not listed separately", "experiment": "TNFa pathway inhibition counter-screen, B-lineage cells – dose response (AID 1259334)", "conditions": "B cell line, TNFa signaling counterscreen reporter; at 0.0005 µM; hits give low values", "values": [{"compound": "CCN(CC(=O)Nc1ccc(NC(C)=O)cc1)C(=O)C1CCCN(C(=O)c2ccc(Cl)cc2)C1", "note": "(centres undefined)", "max activity": "-4.62% (inactive)"}]}, {"test_system": "not listed separately", "experiment": "TNFa pathway inhibition counter-screen, B-lineage cells – dose response (AID 1259334)", "conditions": "B cell line, TNFa signaling counterscreen reporter; at 0.0015 µM; hits give low values", "values": [{"compound": "Cc1ccc(-c2nn3c(C)nnc3c3ccccc23)cc1S(=O)(=O)NCc1ccccc1", "max activity": "9.48% (inactive)"}]}, {"test_system": "not listed separately", "experiment": "TNFa pathway inhibition counter-screen, B-lineage cells – dose response (AID 1259334)", "conditions": "B cell line, TNFa signaling counterscreen reporter; at 0.0046 µM; hits give low values", "values": [{"compound": "CCN1C(=O)C(CC(=O)Nc2ccc(OC)cc2)N(CCc2ccc(F)cc2)C1=S", "note": "(centres undefined)", "max activity": "4.9% (inactive)"}, {"compound": "C[C@@H]1CN([C@@H](C)CO)C(=O)Cc2cc(NC(=O)Cc3cn(C)c4ccccc34)ccc2O[C@H]1CN(C)Cc1ccc(C(F)(F)F)cc1", "max activity": "14% (inactive)"}, {"compound": "C[C@H]1CCCCO[C@H](CN(C)Cc2ccc(C(F)(F)F)cc2)[C@@H](C)CN([C@@H](C)CO)C(=O)c2cc(NC(=O)Nc3cccc4ccccc34)ccc2O1", "max activity": "7.77% (inactive)"}]}, {"test_system": "not listed separately", "experiment": "TNFa pathway inhibition counter-screen, B-lineage cells – dose response (AID 1259334)", "conditions": "B cell line, TNFa signaling counterscreen reporter; at 0.0135 µM; hits give low values", "values": [{"compound": "COc1ccc(S(=O)(=O)N(C)C[C@@H]2Oc3ccc(NC(=O)Nc4ccc(C(F)(F)F)cc4)cc3C(=O)N([C@@H](C)CO)C[C@@H]2C)cc1", "max activity": "7.2% (inactive)"}, {"compound": "CCc1cc2c(COC(=O)c3cc(S(=O)(=O)N4CCOCC4)ccc3F)cc(=O)oc2cc1O", "max activity": "15.8% (inactive)"}]}, {"test_system": "not listed separately", "experiment": "TNFa pathway inhibition counter-screen, B-lineage cells – dose response (AID 1259334)", "conditions": "B cell line, TNFa signaling counterscreen reporter; at 0.042 µM; hits give low values", "values": [{"compound": "COc1ccc(S(=O)(=O)N(C)C[C@H]2Oc3ccc(NC(=O)Nc4ccc(C(F)(F)F)cc4)cc3C(=O)N([C@@H](C)CO)C[C@H]2C)cc1", "max activity": "15.2% (inactive)"}, {"compound": "COc1ccc(CN2CC3(CN(S(=O)(=O)c4ccc(C)cc4)C3)c3c([nH]c4cc(OC)ccc34)[C@H]2CO)cc1", "max activity": "14.8% (inactive)"}]}, {"test_system": "not listed separately", "experiment": "TNFa pathway inhibition counter-screen, B-lineage cells – dose response (AID 1259334)", "conditions": "B cell line, TNFa signaling counterscreen reporter; at 0.12 µM; hits give low values", "values": [{"compound": "CC12CN3CC(C)(CN(C1)C3c1ccc3c(c1)OCO3)C2=O", "note": "(centres undefined)", "max activity": "-17.3% (inactive)"}, {"compound": "Cc1ccc(O)c(N=Nc2ccccc2)n1", "max activity": "62% (inactive)"}]}, {"test_system": "not listed separately", "experiment": "TNFa pathway inhibition counter-screen, B-lineage cells – dose response (AID 1259334)", "conditions": "B cell line, TNFa signaling counterscreen reporter; at 0.135 µM; hits give low values", "values": [{"compound": "N#C[C@H]1[C@H](c2ccc(C#CC3CCCCC3)cc2)[C@@H](CO)N1C(=O)Nc1ccc(F)cc1", "max activity": "9.41% (inactive)"}]}, {"test_system": "not listed separately", "experiment": "TNFa pathway inhibition counter-screen, B-lineage cells – dose response (AID 1259334)", "conditions": "B cell line, TNFa signaling counterscreen reporter; at 0.38 µM; hits give low values", "values": [{"compound": "C[C@@H]1CN([C@@H](C)CO)C(=O)c2c(c3ccccc3n2C)-c2ccccc2CO[C@@H]1CN(C)Cc1cccc(C(F)(F)F)c1", "max activity": "-7.66% (inactive)"}, {"compound": "Oc1cc(O)cc(/C=C/c2ccc(O)c(O)c2)c1", "max activity": "7.46% (inactive)"}, {"compound": "CC(C)NC(=O)N1CC(=O)N2[C@H](CO)[C@@H](c3ccc(/C=C/c4ccccc4)cc3)[C@H]2C1", "max activity": "-8.8% (inactive)"}, {"compound": "Oc1ccc(Cc2ccccc2)c2cccnc12", "max activity": "-12% (inactive)"}, {"compound": "C[C@@H]1CCCCO[C@@H](CN(C)C(=O)C2CCCCC2)[C@@H](C)CN([C@H](C)CO)C(=O)c2cc(NS(=O)(=O)c3ccccc3)ccc2O1", "max activity": "15.5% (inactive)"}, {"compound": "N#Cc1cccc(-c2ccc([C@@H]3[C@H](CO)N4CCCCN(C(=O)Nc5cccc(F)c5)C[C@@H]34)cc2)c1", "max activity": "-15% (inactive)"}]}, {"test_system": "not listed separately", "experiment": "TNFa pathway inhibition counter-screen, B-lineage cells – dose response (AID 1259334)", "conditions": "B cell line, TNFa signaling counterscreen reporter; at 1.1 µM; hits give low values", "values": [{"compound": "COc1ccc(CN2CC3(CN(C(=O)Cc4ccccc4)C3)c3c([nH]c4cc(OC)ccc34)[C@H]2CO)cc1", "max activity": "10.3% (inactive)"}, {"compound": "NS(=O)(=O)c1nn2cc(-c3ccccc3)nc2s1", "max activity": "17.7% (inactive)"}, {"compound": "COc1ccc(-c2cnc3c(c2)C(=O)N([C@H](C)CO)C[C@@H](C)[C@@H](CN(C)C(=O)Nc2c(C)noc2C)O3)cc1", "max activity": "22.7% (inactive)"}, {"compound": "COc1ccc2c(c1)c1ncn(Cc3ccccn3)c(=O)c1n2C", "max activity": "-8.21% (inactive)"}, {"compound": "O=C(NCc1ccccn1)C1CCCN(S(=O)(=O)c2ccccc2)C1", "note": "(centres undefined)", "max activity": "18.3% (inactive)"}, {"compound": "O=C(Nc1ccc([N+](=O)[O-])cc1Cl)c1cc(Cl)ccc1O", "max activity": "14.6% (inactive)"}, {"compound": "O=C1C(Br)=C(c2ccccc2)C(c2ccccc2)=C1c1ccccc1", "max activity": "-5.75% (inactive)"}, {"compound": "C[C@@H]1CCCCO[C@@H](CN(C)S(=O)(=O)c2ccc(Cl)cc2)[C@H](C)CN([C@H](C)CO)C(=O)c2cc(NC(=O)Nc3ccc(C(F)(F)F)cc3)ccc2O1", "max activity": "17% (inactive)"}, {"compound": "Cc1ccc(-c2cc(C(=O)N3CC(C)OC(C)C3)c3ccccc3n2)o1", "note": "(centres undefined)", "max activity": "10.3% (inactive)"}, {"compound": "C[C@H](CO)N1C[C@H](C)[C@H](CN(C)CC2CCCCC2)Oc2ccc(NC(=O)Nc3ccc(C(F)(F)F)cc3)cc2C1=O", "max activity": "8.34% (inactive)"}, {"compound": "Cc1ccc2nc(-c3cc(-c4ccccc4)no3)cn2c1", "max activity": "49.4% (inactive)"}]}, {"test_system": "not listed separately", "experiment": "TNFa pathway inhibition counter-screen, B-lineage cells – dose response (AID 1259334)", "conditions": "B cell line, TNFa signaling counterscreen reporter; at 3 µM; hits give low values", "values": [{"compound": "C[C@H]1CN([C@@H](C)CO)C(=O)c2c(c3ccccc3n2C)-c2ccccc2CO[C@@H]1CN(C)S(=O)(=O)c1ccc([N+](=O)[O-])cc1", "max activity": "-14.8% (inactive)"}]}, {"test_system": "not listed separately", "experiment": "TNFa pathway inhibition counter-screen, B-lineage cells – dose response (AID 1259334)", "conditions": "B cell line, TNFa signaling counterscreen reporter; at 3.5 µM; hits give low values", "values": [{"compound": "O=C(c1ccc(F)cc1)N1C[C@@H]2N[C@H](C1)C2c1ccc(/C=C/c2ccccc2)cc1", "note": "(some centres undefined)", "max activity": "10.7% (inactive)"}, {"compound": "COc1ccc(S(=O)(=O)Nc2ccc3c(c2)C(=O)N([C@@H](C)CO)C[C@@H](C)[C@@H](CN(C)Cc2ccc(C(F)(F)F)cc2)OCCCC[C@H](C)O3)cc1", "max activity": "-16.5% (inactive)"}, {"compound": "O=C1C(=NO)CCc2ccccc21", "max activity": "35.6% (inactive)"}, {"compound": "CCSc1ccc(-c2cc(NC=O)c3ncc(-c4cccc(C(=O)N(C)C)c4)n3c2)cc1", "max activity": "45.8% (inactive)"}, {"compound": "N#C[C@H]1[C@@H](c2ccc(C#CC3CCCCC3)cc2)[C@H](CO)N1C(=O)Nc1ccc(F)cc1", "max activity": "-11.6% (inactive)"}, {"compound": "N#C[C@H]1[C@H](c2ccc(C#Cc3ccccc3F)cc2)[C@@H](CO)N1C(=O)C1CC1", "max activity": "-17.4% (inactive)"}, {"compound": "COC(=O)c1ccc2c(=O)[nH]c(COC(=O)c3c(-c4ccccc4)noc3C)nc2c1", "max activity": "8.26% (inactive)"}, {"compound": "CC12CC[C@H]3[C@@H](CCC4(O)C[C@H](O)CCC34/C=N/NC(=O)Cc3ccccc3)C1(O)CCC2C1=CC(=O)OC1", "note": "(some centres undefined)", "max activity": "5.28% (inactive)"}, {"compound": "CC(=O)NCCCC(=O)NC(CCC(=O)OCc1ccccc1)C(=O)OCc1ccccc1", "note": "(centres undefined)", "max activity": "-20% (inactive)"}]}, {"test_system": "not listed separately", "experiment": "TNFa pathway inhibition counter-screen, B-lineage cells – dose response (AID 1259334)", "conditions": "B cell line, TNFa signaling counterscreen reporter; at 10 µM; hits give low values", "values": [{"compound": "O=C(c1ccc(-c2ccc([N+](=O)[O-])cc2)o1)N1CCCC(C(F)(F)F)C1", "note": "(centres undefined)", "max activity": "46.5% (inactive)"}, {"compound": "CCc1cnc(N2[C@H](C#N)[C@@H](c3ccc(C#CC(C)C)cc3)[C@H]2CO)s1", "max activity": "16.5% (inactive)"}, {"compound": "CCc1cnc(N2[C@H](C#N)[C@H](c3ccc(C#CCC4CCCC4)cc3)[C@@H]2CO)s1", "max activity": "32.9% (inactive)"}, {"compound": "CC(=NNC(=S)N1CC2CCC(CC2)C1)c1nccs1", "max activity": "43.9% (inactive)"}, {"compound": "CCc1cnc(N2[C@H](C#N)[C@@H](c3ccccc3C3=CCCC3)[C@@H]2CO)s1", "max activity": "9.74% (inactive)"}, {"compound": "C[C@@H]1CN([C@H](C)CO)C(=O)c2c(c3ccccc3n2C)-c2ccccc2CO[C@H]1CN(C)C(=O)Nc1ccccc1C(F)(F)F", "max activity": "-6.36% (inactive)"}, {"compound": "OC(CCN1CCCCC1)c1ccc(-c2ccccc2)cc1", "note": "(centres undefined)", "max activity": "32.8% (inactive)"}, {"compound": "CCCCc1nc2ccccc2[nH]1", "max activity": "6.54% (inactive)"}, {"compound": "CCCNC(=O)N1[C@H](CO)[C@H](c2ccc(/C=C/c3ccccc3)cc2)[C@@H]1C#N", "max activity": "45.4% (inactive)"}]}]}
